Experiments:
Test in all cases: relative viability (nuclei count vs DMSO), 5 days (fraction); higher = more cells survive
[1] = compound: C1=CC=C2C(=C1)N=C(S2)C(C#N)C3=NC(=NC=C3)NCCC4=CN=CC=C4 + COc1cccc2cc(-c3nc([C@H]4CC[C@H](C(=O)O)CC4)n4ncnc(N)c34)[nH]c12 [OSI-027] (partner 0.5 µM)
Method in brief: (§1)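 Each reported value is a median over duplicate plates. It expresses relative viability: treated-well nuclei count divided by vehicle-well nuclei count. Lung cancer cell lines in 1536-well plates were dosed by pin tool a day after seeding, alone with one drug or with a fixed anchor-drug dose plus five library-drug doses (not always all listed) in √10 steps, and nuclei were counted after 5 days.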

[2] = compound: C1=CC=C2C(=C1)N=C(S2)C(C#N)C3=NC(=NC=C3)NCCC4=CN=CC=C4 + NC(=O)Nc1cc(-c2cccc(F)c2)sc1C(=O)N[C@H]1CCCNC1 [AZD7762] (partner 0.2 µM)
Method in brief: as §1

NVP-TAE684 + Dasatinib = compound: COc1cc(N2CCC(N3CCN(C)CC3)CC2)ccc1Nc1ncc(Cl)c(Nc2ccccc2S(=O)(=O)C(C)C)n1 [NVP-TAE684] + Cc1nc(Nc2ncc(C(=O)Nc3c(C)cccc3Cl)s2)cc(N2CCN(CCO)CC2)n1 [Dasatinib] (partner 0.075 µM)
Method in brief: as §1

Vandetanib + Foretinib = compound: COc1cc2/c(=N/c3ccc(Br)cc3F)nc[nH]c2cc1OCC1CCN(C)CC1 [Vandetanib] + COc1cc2c(Oc3ccc(NC(=O)C4(C(=O)Nc5ccc(F)cc5)CC4)cc3F)ccnc2cc1OCCCN1CCOCC1 [Foretinib] (partner 0.25 µM)
Method in brief: as §1

With NCI-H1792 the relative viability ([1]; first compound 0.005 µM) was 0.648, the relative viability ([1]; first compound 0.01581 µM) was 0.64 and the relative viability ([1]; first compound 0.05 µM) was 0.759. It also gave a relative viability ([1]; first compound 0.1581 µM) of 1.16, a relative viability ([1]; first compound 0.5 µM) of 0.36 and a relative viability ([2]; first compound 0.01581 µM) of 0.631. The relative viability ([2]; first compound 0.05 µM) was 0.8, the relative viability ([2]; first compound 0.1581 µM) was 1.28 and the relative viability ([2]; first compound 0.5 µM) was 0.37. The relative viability (NVP-TAE684 + Dasatinib; first compound 0.2 µM) was 0.623, the relative viability (NVP-TAE684 + Dasatinib; first compound 0.6325 µM) was 0.76 and the relative viability (NVP-TAE684 + Dasatinib; first compound 2 µM) was 0.25.

For HCC-15, the relative viability ([1]; first compound 0.005 µM) was 0.558, the relative viability ([1]; first compound 0.01581 µM) was 0.644 and the relative viability ([1]; first compound 0.05 µM) was 0.722. For the same cell line, the relative viability ([1]; first compound 0.1581 µM) was 0.863, the relative viability ([1]; first compound 0.5 µM) was 0.531 and the relative viability ([2]; first compound 0.005 µM) was 1.02. The relative viability ([2]; first compound 0.01581 µM) was 1.23, the relative viability ([2]; first compound 0.05 µM) was 1.25 and the relative viability ([2]; first compound 0.1581 µM) was 1.51. For the same cell line, the relative viability ([2]; first compound 0.5 µM) was 1.24, the relative viability (NVP-TAE684 + Dasatinib; first compound 0.2 µM) was 0.542 and the relative viability (NVP-TAE684 + Dasatinib; first compound 0.6325 µM) was 0.435. The relative viability (NVP-TAE684 + Dasatinib; first compound 2 µM) was 0.28, the relative viability (Vandetanib + Foretinib; first compound 0.02 µM) was 1.05 and the relative viability (Vandetanib + Foretinib; first compound 0.06325 µM) was 0.96. For the same cell line, the relative viability (Vandetanib + Foretinib; first compound 0.2 µM) was 0.577, the relative viability (Vandetanib + Foretinib; first compound 0.6325 µM) was 1.04 and the relative viability (Vandetanib + Foretinib; first compound 2 µM) was 0.973.

Work on NCI-H1755 yielded a relative viability ([1]; first compound 0.005 µM) of 0.709, a relative viability ([1]; first compound 0.01581 µM) of 0.733 and a relative viability ([1]; first compound 0.05 µM) of 0.727. For the same cell line, the relative viability ([1]; first compound 0.1581 µM) was 0.745, the relative viability ([1]; first compound 0.5 µM) was 0.67 and the relative viability ([2]; first compound 0.005 µM) was 0.458. It also gave a relative viability ([2]; first compound 0.01581 µM) of 0.539, a relative viability ([2]; first compound 0.05 µM) of 0.506 and a relative viability ([2]; first compound 0.1581 µM) of 0.542. It also gave a relative viability ([2]; first compound 0.5 µM) of 0.43, a relative viability (NVP-TAE684 + Dasatinib; first compound 0.2 µM) of 0.333 and a relative viability (NVP-TAE684 + Dasatinib; first compound 0.6325 µM) of 0.276. For the same cell line, the relative viability (NVP-TAE684 + Dasatinib; first compound 2 µM) was 0.0732, the relative viability (Vandetanib + Foretinib; first compound 0.02 µM) was 0.9 and the relative viability (Vandetanib + Foretinib; first compound 0.06325 µM) was 0.884. It also gave a relative viability (Vandetanib + Foretinib; first compound 0.2 µM) of 0.9, a relative viability (Vandetanib + Foretinib; first compound 0.6325 µM) of 0.956 and a relative viability (Vandetanib + Foretinib; first compound 2 µM) of 0.868.

For NCI-H23, the relative viability ([1]; first compound 0.005 µM) was 0.566, the relative viability ([1]; first compound 0.01581 µM) was 0.552 and the relative viability ([1]; first compound 0.05 µM) was 0.474. The relative viability ([1]; first compound 0.1581 µM) was 0.601, the relative viability ([1]; first compound 0.5 µM) was 0.614 and the relative viability ([2]; first compound 0.01581 µM) was 0.239. The relative viability ([2]; first compound 0.05 µM) was 0.254, the relative viability ([2]; first compound 0.1581 µM) was 0.175 and the relative viability ([2]; first compound 0.5 µM) was 0.249. For the same cell line, the relative viability (NVP-TAE684 + Dasatinib; first compound 0.6325 µM) was 0.638, the relative viability (NVP-TAE684 + Dasatinib; first compound 2 µM) was 0.249 and the relative viability (Vandetanib + Foretinib; first compound 0.02 µM) was 0.917. The relative viability (Vandetanib + Foretinib; first compound 0.06325 µM) was 1, the relative viability (Vandetanib + Foretinib; first compound 0.2 µM) was 0.304 and the relative viability (Vandetanib + Foretinib; first compound 0.6325 µM) was 0.947. The relative viability (Vandetanib + Foretinib; first compound 2 µM) was 0.898.

Work on BEN yielded a relative viability ([1]; first compound 0.005 µM) of 0.427, a relative viability ([1]; first compound 0.01581 µM) of 0.283 and a relative viability ([1]; first compound 0.05 µM) of 0.274. The relative viability ([1]; first compound 0.1581 µM) was 0.625, the relative viability ([1]; first compound 0.5 µM) was 0.587 and the relative viability ([2]; first compound 0.005 µM) was 0.759. It also gave a relative viability ([2]; first compound 0.01581 µM) of 0.609, a relative viability ([2]; first compound 0.05 µM) of 0.689 and a relative viability ([2]; first compound 0.1581 µM) of 0.85. The relative viability ([2]; first compound 0.5 µM) was 0.774, the relative viability (NVP-TAE684 + Dasatinib; first compound 0.2 µM) was 0.37 and the relative viability (NVP-TAE684 + Dasatinib; first compound 0.6325 µM) was 0.287. For the same cell line, the relative viability (NVP-TAE684 + Dasatinib; first compound 2 µM) was 0.28, the relative viability (Vandetanib + Foretinib; first compound 0.02 µM) was 0.601 and the relative viability (Vandetanib + Foretinib; first compound 0.06325 µM) was 0.517. For the same cell line, the relative viability (Vandetanib + Foretinib; first compound 0.2 µM) was 0.499, the relative viability (Vandetanib + Foretinib; first compound 0.6325 µM) was 0.61 and the relative viability (Vandetanib + Foretinib; first compound 2 µM) was 0.62.

Work on NCI-H1651 yielded a relative viability ([1]; first compound 0.005 µM) of 0.69, a relative viability ([1]; first compound 0.01581 µM) of 0.672 and a relative viability ([1]; first compound 0.05 µM) of 0.72. It also gave a relative viability ([1]; first compound 0.1581 µM) of 0.939, a relative viability ([1]; first compound 0.5 µM) of 0.674 and a relative viability ([2]; first compound 0.005 µM) of 0.428. For the same cell line, the relative viability ([2]; first compound 0.01581 µM) was 0.463, the relative viability ([2]; first compound 0.05 µM) was 0.533 and the relative viability ([2]; first compound 0.1581 µM) was 0.509. The relative viability ([2]; first compound 0.5 µM) was 0.471, the relative viability (NVP-TAE684 + Dasatinib; first compound 0.2 µM) was 0.326 and the relative viability (NVP-TAE684 + Dasatinib; first compound 0.6325 µM) was 0.321. It also gave a relative viability (NVP-TAE684 + Dasatinib; first compound 2 µM) of 0.146, a relative viability (Vandetanib + Foretinib; first compound 0.02 µM) of 0.938 and a relative viability (Vandetanib + Foretinib; first compound 0.06325 µM) of 0.721. For the same cell line, the relative viability (Vandetanib + Foretinib; first compound 0.2 µM) was 0.13, the relative viability (Vandetanib + Foretinib; first compound 0.6325 µM) was 0.786 and the relative viability (Vandetanib + Foretinib; first compound 2 µM) was 0.708.

In the case of NCI-H2126, the relative viability ([1]; first compound 0.005 µM) is reported as 0.739, the relative viability ([1]; first compound 0.01581 µM) is reported as 0.676 and the relative viability ([1]; first compound 0.05 µM) is reported as 0.732. It also gave a relative viability ([1]; first compound 0.1581 µM) of 0.705, a relative viability ([1]; first compound 0.5 µM) of 0.677 and a relative viability ([2]; first compound 0.005 µM) of 0.969. For the same cell line, the relative viability ([2]; first compound 0.01581 µM) was 1.06, the relative viability ([2]; first compound 0.05 µM) was 1.04 and the relative viability ([2]; first compound 0.1581 µM) was 1.07. The relative viability ([2]; first compound 0.5 µM) was 0.974, the relative viability (NVP-TAE684 + Dasatinib; first compound 0.2 µM) was 0.568 and the relative viability (NVP-TAE684 + Dasatinib; first compound 0.6325 µM) was 0.39. It also gave a relative viability (NVP-TAE684 + Dasatinib; first compound 2 µM) of 0.375, a relative viability (Vandetanib + Foretinib; first compound 0.02 µM) of 1.17 and a relative viability (Vandetanib + Foretinib; first compound 0.06325 µM) of 1.16. The relative viability (Vandetanib + Foretinib; first compound 0.2 µM) was 1.11, the relative viability (Vandetanib + Foretinib; first compound 0.6325 µM) was 1.14 and the relative viability (Vandetanib + Foretinib; first compound 2 µM) was 1.11.

Work on EKVX yielded a relative viability ([1]; first compound 0.005 µM) of 0.736, a relative viability ([1]; first compound 0.01581 µM) of 0.909 and a relative viability ([1]; first compound 0.05 µM) of 0.681. For the same cell line, the relative viability ([1]; first compound 0.1581 µM) was 0.69, the relative viability ([1]; first compound 0.5 µM) was 0.659 and the relative viability ([2]; first compound 0.005 µM) was 0.704. For the same cell line, the relative viability ([2]; first compound 0.01581 µM) was 0.777, the relative viability ([2]; first compound 0.05 µM) was 0.682 and the relative viability ([2]; first compound 0.1581 µM) was 0.85. It also gave a relative viability ([2]; first compound 0.5 µM) of 0.604, a relative viability (NVP-TAE684 + Dasatinib; first compound 0.2 µM) of 0.367 and a relative viability (NVP-TAE684 + Dasatinib; first compound 0.6325 µM) of 0.469. For the same cell line, the relative viability (NVP-TAE684 + Dasatinib; first compound 2 µM) was 0.202, the relative viability (Vandetanib + Foretinib; first compound 0.02 µM) was 0.821 and the relative viability (Vandetanib + Foretinib; first compound 0.06325 µM) was 0.695. It also gave a relative viability (Vandetanib + Foretinib; first compound 0.2 µM) of 0.795, a relative viability (Vandetanib + Foretinib; first compound 0.6325 µM) of 0.794 and a relative viability (Vandetanib + Foretinib; first compound 2 µM) of 1.17.

NCI-H1650 was tested, and the relative viability ([1]; first compound 0.005 µM) was 0.557, the relative viability ([1]; first compound 0.01581 µM) was 0.56 and the relative viability ([1]; first compound 0.05 µM) was 0.611. It also gave a relative viability ([1]; first compound 0.1581 µM) of 0.689, a relative viability ([1]; first compound 0.5 µM) of 0.354 and a relative viability (NVP-TAE684 + Dasatinib; first compound 0.2 µM) of 0.378. For the same cell line, the relative viability (NVP-TAE684 + Dasatinib; first compound 0.6325 µM) was 0.19, the relative viability (NVP-TAE684 + Dasatinib; first compound 2 µM) was 0.137 and the relative viability (Vandetanib + Foretinib; first compound 0.02 µM) was 1.28. For the same cell line, the relative viability (Vandetanib + Foretinib; first compound 0.06325 µM) was 0.693, the relative viability (Vandetanib + Foretinib; first compound 0.2 µM) was 0.224 and the relative viability (Vandetanib + Foretinib; first compound 0.6325 µM) was 0.753. For the same cell line, the relative viability (Vandetanib + Foretinib; first compound 2 µM) was 0.641.

Source: the supplement of paper PMC10307832
